Data reported in US20260242391A1 (priority 2023, published 2026).

Tests used:
[1] = tested on: HL-60; assay: HL-60 differentiation potency; type: cell-based; conditions: Homo sapiens
[2] = in vitro; conditions: human

| Structure (SMILES) | EC50 [1] | IC50 [2] |
| --- | --- | --- |
| C[C@H]1[C@@H](OCC2(O)CCC(C(=O)O)CC2)O[C@@H]2O[C@@]3(C)CC[C@H]4[C@H](C)CC[C@@H]1[C@@]24OO3 (stereo partly drawn) [Compound 211, 4-hydroxy-4-((((3R,5aS,6R,8aS, 9R,10S,12R, 12aR)-3,6,9-trimethyldeca-hydro-12H-3,12-epoxy[1,2]dioxepino[4,3-i]isochromen-10-yl)oxy)methyl) cyclohexane-1-carboxylic acid] | 11.4 µM | > 20 µM |
| C[C@H]1[C@@H](OC[C@]2(F)CC[C@@H](C(=O)O)CC2)O[C@@H]2O[C@@]3(C)CC[C@H]4[C@H](C)CC[C@@H]1[C@@]24OO3 [Compound 200, (1R,4s)-4-fluoro-4-((((3R,5aS,6R,8aS, 9R,10S,12R, 12aR)-3,6,9-trimethyldeca-hydro-12H-3,12-epoxy[1,2]dioxepino[4,3-i]isochromen-10-yl)oxy)methyl) cyclohexane-1-carboxylic acid] | 4.47 µM | 15.3 µM |
| C[C@H]1[C@@H](O[C@H]2CC[C@@H](OCC(=O)O)CC2)O[C@@H]2O[C@@]3(C)CC[C@H]4[C@H](C)CC[C@@H]1[C@@]24OO3 [Compound 224, 2-(((1R,4s)-4-(((3R,5aS,6R,8aS, 9R,10S,12R, 12aR)-3,6,9-trimethyldeca-hydro-12H-3,12-epoxy[1,2]dioxepino[4,3-i]isochromen-10-yl)oxy)cyclohexyl)oxy)acetic acid] | 8.04 µM | > 20 µM |
| C[C@H]1[C@@H](OCC(=O)N2C[C@@H]3CCC[C@@H]3[C@H]2C(=O)O)O[C@@H]2O[C@@]3(C)CC[C@H]4[C@H](C)CC[C@@H]1[C@@]24OO3 [Compound 191, (1S,3aR,6aS)-2-(2-(((3R,5aS,6R, 8aS,9R,10S,12R, 12aR)-3,6,9-trimethyldeca-hydro-12H-3,12-epoxy[1,2]dioxepino[4,3-i]isochromen-10-yl)oxy)acetyl) octahydrocyclo-penta[c]pyrrole-1-carboxlic acid] | 9.73 µM | > 20 µM |
| C[C@H]1[C@@H](OCC2(F)CCCC(C(=O)O)C2)O[C@@H]2O[C@@]3(C)CC[C@H]4[C@H](C)CC[C@@H]1[C@@]24OO3 (stereo partly drawn) [Compound 222, 3-fluoro-3-((((3R,5aS,6R,8aS, 9R,10S,12R, 12aR)-3,6,9-trimethyldeca-hydro-12H-3,12-epoxy[1,2]dioxepino[4,3-i]isochromen-10-yl)oxy)methyl) cyclohexane-1-carboxylic acid] | 0.134 µM | 19 µM |
| C[C@H]1[C@@H](OCc2ccc(C(=O)NC34CC(C(=O)O)(C3)C4)cc2)O[C@@H]2O[C@@]3(C)CC[C@H]4[C@H](C)CC[C@@H]1[C@@]24OO3 [Compound 273, 3-(4-((((3R,5aS,6R,8aS, 9R,10S,12R, 12aR)-3,6,9-trimethyldeca-hydro-12H-3,12-epoxy[1,2]dioxepino[4,3-i]isochromen-10-yl)oxy)methyl)benzamido) bicyclo[1.1.1] pentane-1-carboxylic acid] | 2.89 µM | 19.4 µM |
| C[C@H]1[C@@H](OCC2CCN(C(=O)C(=O)O)CC2)O[C@@H]2O[C@@]3(C)CC[C@H]4[C@H](C)CC[C@@H]1[C@@]24OO3 [Compound 203, 2-oxo-2-(4-((((3R,5aS,6R,8aS, 9R,10S,12R, 12aR)-3,6,9-trimethyldeca-hydro-12H-3,12-epoxy[1,2]dioxepino[4,3-i]isochromen-10-yl)oxy)methyl)piperidin-1-yl)acetic acid] | 17.5 µM | > 20 µM |
| C[C@H]1[C@@H](O[C@H]2C[C@@H](C(=O)N[C@H](C(=O)O)c3ccc(C(F)(F)F)cc3)C2)O[C@@H]2O[C@@]3(C)CC[C@H]4[C@H](C)CC[C@@H]1[C@@]24OO3 [Compound 257, (S)-2-(4-(trifluoromethyl)phenyl)-2-((1R,3R)-3-(((3R,5aS,6R,8aS, 9R,10S,12R, 12aR)-3,6,9-trimethyldeca-hydro-12H-3,12-epoxy[1,2]dioxepino[4,3-i]isochromen-10-yl)oxy)cyclo-butane-1-carboxamido) acetic acid] | 3.21 µM | 11.5 µM |
| C[C@H]1[C@@H](Oc2ccc(C(=O)N3CC[C@@H](C(=O)O)C3)cc2Cl)O[C@@H]2O[C@@]3(C)CC[C@H]4[C@H](C)CC[C@@H]1[C@@]24OO3 [Compound 247, (R)-1-(3-chloro-4-(((3R,5aS,6R,8aS, 9R,10S,12R, 12aR)-3,6,9-trimethyldeca-hydro-12H-3,12-epoxy[1,2]dioxepino[4,3-i]isochromen-10-yl)oxy)benzoyl) pyrrolidine-3-carboxylic acid] | 0.0561 µM | 1.42 µM |
| C[C@H]1[C@H](OCc2c(Cl)cc(C(=O)O)cc2S(C)(=O)=O)O[C@@H]2O[C@@]3(C)CC[C@H]4[C@H](C)CC[C@@H]1[C@@]24OO3 [Compound 217, 3-chloro-5-(methylsulfonyl)-4-((((3R,5aS,6R,8aS, 9R,10R,12R, 12aR)-3,6,9-trimethyldeca-hydro-12H-3,12-epoxy[1,2]dioxepino[4,3-i]isochromen-10-yl)oxy)methyl) benzoic acid] | 0.0531 µM | 3 µM |
| C[C@H]1[C@@H](OCc2ccc(C(=O)N[C@@H]3C[C@H](C(=O)O)C[C@H]3O)cc2)O[C@@H]2O[C@@]3(C)CC[C@H]4[C@H](C)CC[C@@H]1[C@@]24OO3 [Compound 288, (1S,3R,4R)-3-hydroxy-4-(4-((((3R,5aS,6R,8aS, 9R,10S,12R, 12aR)-3,6,9-trimethyldeca-hydro-12H-3,12-epoxy[1,2]dioxepino[4,3-i]isochromen-10-yl)oxy)methyl)benzamido) cyclopentane-1-carboxylic acid] | 5.58 µM | > 20 µM |
| C[C@H]1[C@@H](Oc2ccc(C(=O)N3CC(C(=O)O)C3)cc2Cl)O[C@@H]2O[C@@]3(C)CC[C@H]4[C@H](C)CC[C@@H]1[C@@]24OO3 [Compound 244, 1-(3-chloro-4-(((3R,5aS,6R,8aS, 9R,10S,12R, 12aR)-3,6,9-trimethyldeca-hydro-12H-3,12-epoxy[1,2]dioxepino[4,3-i]isochromen-10-yl)oxy)benzoyl) azetidine-3-carboxylic acid] | 0.101 µM | 2.46 µM |
| C[C@H]1[C@@H](OC[C@H]2CC[C@@H](C(=O)NCC3(C(=O)O)CCC3)CC2)O[C@@H]2O[C@@]3(C)CC[C@H]4[C@H](C)CC[C@@H]1[C@@]24OO3 [Compound 297, 1-(((1R,4s)-4-((((3R,5aS,6R,8aS, 9R,10S,12R, 12aR)-3,6,9-trimethyldeca-hydro-12H-3,12-epoxy[1,2]dioxepino[4,3-i]isochromen-10-yl)oxy)methyl)cyclohexane-1-carboxamido)methyl) cyclobutane-1-carboxylic acid] | 0.0317 µM | 17.7 µM |
| C[C@H]1[C@@H](OCc2ccc(NC(=O)[C@H]3CC[C@@H](C(=O)O)C3)cc2)O[C@@H]2O[C@@]3(C)CC[C@H]4[C@H](C)CC[C@@H]1[C@@]24OO3 [Compound 294, (1R,3S)-3-((4-((((3R,5aS,6R,8aS, 9R,10S,12R, 12aR)-3,6,9-trimethyldeca-hydro-12H-3,12-epoxy[1,2]dioxepino[4,3-i]isochromen-10-yl)oxy)methyl)phenyl)carbamoyl) cyclopentane-1-carboxylic acid] | 0.065 µM | 15.8 µM |
| C[C@H]1[C@@H](Oc2ccc(C(=O)N3C[C@H]4[C@@H]([C@H]3C(=O)O)C4(C)C)cc2)O[C@@H]2O[C@@]3(C)CC[C@H]4[C@H](C)CC[C@@H]1[C@@]24OO3 [Compound 190, (1R,2S,5S)-6,6-dimethyl-3-(4-(((3R,5aS,6R,8aS, 9R,10S,12R, 12aR)-3,6,9-trimethyldeca-hydro-12H-3,12-epoxy[1,2]dioxepino[4,3-i]isochromen-10-yl)oxy)benzoyl)-3-azabicyclo[3.1.0] hexane-2-carboxylic acid] | 0.0803 µM | 0.33 µM |
| C[C@H]1[C@@H](OCc2ccc(C(=O)O)c(OC(F)(F)F)c2)O[C@@H]2O[C@@]3(C)CC[C@H]4[C@H](C)CC[C@@H]1[C@@]24OO3 [Compound 298, 2-(trifluoro-methoxy)-4-((((3R,5aS,6R,8aS, 9R,10S,12R, 12aR)-3,6,9-trimethyldeca-hydro-12H-3,12-epoxy[1,2]dioxepino[4,3-i]isochromen-10-yl)oxy)methyl) benzoic acid] | 0.0531 µM | > 20 µM |
| C[C@H]1[C@@H](OCC2CCC(C(=O)O)O2)O[C@@H]2O[C@@]3(C)CC[C@H]4[C@H](C)CC[C@@H]1[C@@]24OO3 (stereo partly drawn) [Compound 209, 5-((((3R,5aS,6R,8aS, 9R,10S,12R, 12aR)-3,6,9-trimethyldeca-hydro-12H-3,12-epoxy[1,2]dioxepino[4,3-i]isochromen-10-yl)oxy)methyl) tetrahydrofuran-2-carboxylic acid] | 15.8 µM | > 20 µM |
| C[C@H]1[C@@H](Oc2ccc(C3CC3C(=O)O)cc2)O[C@@H]2O[C@@]3(C)CC[C@H]4[C@H](C)CC[C@@H]1[C@@]24OO3 (stereo partly drawn) [Compound 192, 2-(4-(((3R,5aS,6R,8aS, 9R,10S,12R, 12aR)-3,6,9-trimethyldeca-hydro-12H-3,12-epoxy[1,2]dioxepino[4,3-i]isochromen-10-yl)oxy)phenyl) cyclopropane-1-carboxylic acid] | 0.0672 µM | 3.5 µM |
| C[C@H]1[C@@H](OCc2ccc(C(=O)NCC3(C(=O)O)CCC3)cc2)O[C@@H]2O[C@@]3(C)CC[C@H]4[C@H](C)CC[C@@H]1[C@@]24OO3 [Compound 286, 1-((4-((((3R,5aS,6R,8aS, 9R,10S,12R, 12aR)-3,6,9-trimethyldeca-hydro-12H-3,12-epoxy[1,2]dioxepino[4,3-i]isochromen-10-yl)oxy)methyl)benzamido)methyl) cyclobutane-1-carboxylic acid] | 0.018 µM | 1.53 µM |
| C[C@H]1[C@@H](Oc2ccc3cc(C(=O)O)ccc3c2)O[C@@H]2O[C@@]3(C)CC[C@H]4[C@H](C)CC[C@@H]1[C@@]24OO3 [Compound 214, 6-(((3R,5aS,6R,8aS, 9R,10S,12R, 12aR)-3,6,9-trimethyldeca-hydro-12H-3,12-epoxy[1,2]dioxepino[4,3-i]isochromen-10-yl)oxy)-2-naphthoic acid] | 0.0537 µM | 0.22 µM |
